Test results reported in patent US12491271B2, “Positron emission tomography radiotracer for diseases associated with translocator protein overexpression, translocator protein-targeting ligand for fluorescence imaging-guided surgery and photodynamic therapy, and production methods therefor” (Seoul National University R&DB Foundation, priority 2018, dated 2025).

Assays:
TSPO = TSPO (Homo sapiens, UniProt P30536); settings: compared with earlier tracer [11C]PK11195, background art; cited from earlier work
[1] = In vitro stability in human serum; assay type: in vitro ADME; settings: human serum mixed with 1% ethanol/water, 37° C., for up to 120 minutes
Procedure: In an experiment on the in vitro stability of the fluorine-18-labeled PET radiotracer ([^18F]BS224) for targeting translocator protein overexpression, 0.4 mL of human serum was mixed with 0.4 mL of 1% ethanol/water containing the fluorine-18-labeled radiotracer ([^18F]BS224), and then the solution was incubated at 37° C. for 0, 10, 30, 60 and 120 minutes and then analyzed by thin film chromatography.

[2] = Measurement of lipophilicity (n-octanol / sodium phosphate buffer partition); assay type: physicochemical; settings: n-octanol / sodium phosphate buffer 0.15 M, pH 7.4; measured five times; read-out: lipophilicity (ratio of counts per minute from n-octanol versus sodium phosphate buffer) (converted)
Procedure: For the measurement of lipophilicity, [^18F]BS224 dispersed in 5% ethanol/saline was added to and mixed with n-octanol (5 mL) and sodium phosphate buffer (0.15 M, pH 7.4, 5.0 mL), and then lipophilicity was measured five times. Samples of each phase were counted for radioactivity, and the lipophilicity was expressed as the ratio of the counts per minute from n-octanol versus that of the sodium phosphate buffer. The lipophilicity of [^18F]BS224 was 2.78±0.4.

Sequence of TSPO (P30536 whole entry): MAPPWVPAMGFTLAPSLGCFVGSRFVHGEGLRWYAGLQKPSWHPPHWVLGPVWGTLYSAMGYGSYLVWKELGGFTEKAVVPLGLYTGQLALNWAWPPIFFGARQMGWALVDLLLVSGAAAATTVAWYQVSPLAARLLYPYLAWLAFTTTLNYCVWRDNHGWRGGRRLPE

Row | Compound | higher uptake (TSPO) [fold] | stability of radiotracer in human serum (thin film chromatography) [1] | logD [2]
1 | COc1ccc(OC)c(CN(C(C)=O)c2cc(F)ccc2Oc2ccccc2)c1 [[^11C]DAA1106] | 4 | – | –
2 | CCCN(CCC)C(=O)Cc1c(-c2ccc([18F])cc2)nc2c(Cl)cc(Cl)cn12 [[^18F]BS224, 2-(6,8-dichloro-2-(4-[^18F]fluorophenyl)imidazo[1,2-a]pyridin-3-yl)-N, N-dipropylacetamide] | – | at least 98.7% | 0.444
